Source: patent publication US4804656A, “Novel androstane-17β-carboxylic acid esters” (Aktiebolaget Draco, priority 1985, dated 1989)

Target: T1, glucocorticoid receptor (Rattus norvegicus, UniProt P06536)
T1 construct: The thymus was removed and put into ice-cold saline; The tissue was homogenized in a Potter Elvehjem homogenizer; from tissue; host or cells: thymus of male Sprague-Dawley rats, 20,000×g supernatant of homogenate
T1 sequence (P06536 1-795): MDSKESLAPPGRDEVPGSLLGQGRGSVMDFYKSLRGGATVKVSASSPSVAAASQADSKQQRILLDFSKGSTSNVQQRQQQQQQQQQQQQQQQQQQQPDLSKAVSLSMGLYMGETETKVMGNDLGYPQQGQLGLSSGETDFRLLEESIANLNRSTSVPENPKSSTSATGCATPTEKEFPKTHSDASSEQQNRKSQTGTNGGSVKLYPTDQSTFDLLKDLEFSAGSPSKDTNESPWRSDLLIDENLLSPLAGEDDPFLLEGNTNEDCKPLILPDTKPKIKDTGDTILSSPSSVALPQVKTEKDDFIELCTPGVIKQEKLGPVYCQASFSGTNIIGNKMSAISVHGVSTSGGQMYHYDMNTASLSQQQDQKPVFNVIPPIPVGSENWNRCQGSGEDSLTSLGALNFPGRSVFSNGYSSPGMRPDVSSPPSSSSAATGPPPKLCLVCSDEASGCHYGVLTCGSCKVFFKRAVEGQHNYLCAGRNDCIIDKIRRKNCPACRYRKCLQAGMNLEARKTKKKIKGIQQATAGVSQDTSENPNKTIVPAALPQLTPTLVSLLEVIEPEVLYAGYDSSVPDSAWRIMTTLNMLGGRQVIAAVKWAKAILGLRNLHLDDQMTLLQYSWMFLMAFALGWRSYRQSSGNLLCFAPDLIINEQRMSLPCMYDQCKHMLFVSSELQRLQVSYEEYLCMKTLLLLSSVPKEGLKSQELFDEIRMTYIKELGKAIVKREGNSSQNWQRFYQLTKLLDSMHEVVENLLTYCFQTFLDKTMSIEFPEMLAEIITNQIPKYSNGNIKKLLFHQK
Assay: Affinity to the glucocorticoid receptor: competition with 3H-labelled dexamethasone in rat thymus 20,000×g supernatant
Conditions: curves compared at the 50% specific binding level, referenced to budesonide = 1, 3 nM 3H-dexamethasone, about 24 h at 0° C.
Experimental: All steroids according to the present invention are physiologically active compounds. The affinity of the novel androstane-17β-carboxylic acid esters to the glucocorticoid receptor has been used as a model for determination of the anti-inflammatory potency.
Male Sprague-Dawley rats, one to two months of age, were used throughout the investigation. The thymus was removed and put into ice-cold saline. The tissue was homogenized in a Potter Elvehjem homogenizer in 10 ml of a buffer containing 20 mM Tris, pH 7.4, 10% (w/v) glycerol, 1 mM EDTA, 20 mM NaMoO4, 10 mM mercaptoethanol. The homogenate was centrifuged for 15 min at 20,000×g. Portions of the 20,000×g supernatant (230 μl) were incubated for about 24 h at 0° C. with 100 μl phenylmethylsulphonylfluoride (an esterase inhibitor, final conc. 0.5 mM), 20 μl unlabelled competitor and 50 μl ^3 H-labelled dexamethasone (final conc. 3 nM). Bound and free steroid were separated by incubating the mixture with 60 μl 2.5% (w/v) charcoal and 0.25% (w/v) dextran T70 suspension in […], pH 7.4, 1 mM EDTA, and […] for 10 min at 0° C. Following a centrifugation at 500×g for 10 min, 230 μl of the supernatant was counted in 10 ml Insta-Gel in a Packard scintillation spectrophotometer. The supernatants were incubated with a) [^3 H]dexamethasone alone, b) [^3 H] dexamethasone plus 1000 fold excess of unlabelled dexamethasone and c) [^3 H] dexamethasone plus 0.03-300 fold "excess" competitor. The nonspecific binding was determined when 1000 fold excess of unlabelled dexamethasone was added to [^3 H]-labelled dexamethasone.
The radioactivity bound to the receptor in the presence of competitor divided by the radioactivity bound to the receptor in the absence of competitor multiplied by 100 gives the percentage specific binding of labelled dexamethasone. For each concentration of a competitor the percentage specifically bound radioactivity is plotted against the log of concentration of competitor. The curves are compared at the 50% specific binding level and reference to budesonide, which is assigned a relative binding affinity (RBA) of 1.

| SMILES | RBA (relative binding affinity) |
| --- | --- |
| CCOC(=O)OC(C)OC(=O)[C@@]1(OC(=O)CC)[C@H](C)C[C@H]2[C@@H]3CCC4=CC(=O)C=C[C@]4(C)[C@@]3(F)[C@@H](O)C[C@@]21C (stereo partly shown) [Example 24b] | 0.55 |
| CCC(=O)O[C@]1(C(=O)OC(C)OC(=O)OCC(C)C)[C@@H](C)C[C@H]2[C@@H]3CCC4=CC(=O)C=C[C@]4(C)[C@@]3(F)[C@@H](O)C[C@@]21C (stereo partly shown) [Example 10b] | 0.82 |
| CCCCC(=O)O[C@]1(C(=O)OC(C)OC(=O)OC(C)C)[C@@H](C)C[C@H]2[C@@H]3CCC4=CC(=O)C=C[C@]4(C)[C@@]3(F)[C@@H](O)C[C@@]21C (stereo partly shown) [Example 22b] | 0.77 |
| CCOC(=O)OC(C)OC(=O)[C@@]1(OC(=O)CC)[C@@H](C)C[C@H]2[C@@H]3CCC4=CC(=O)C=C[C@]4(C)[C@@]3(F)[C@@H](O)C[C@@]21C (single isomer, unassigned) [1 (epimer B), 1'-ethoxycarbonyloxyethyl 9α-fluoro-11β-hydroxy-16β-methyl-3-oxo-17α-propionyloxyandrosta-1,4-diene-17β-carboxylate] | 0.80 |
| CCC(=O)O[C@]1(C(=O)OC(C)OC(=O)OC(C)C)[C@@H](C)C[C@H]2[C@@H]3CCC4=CC(=O)C=C[C@]4(C)[C@@]3(F)[C@@H](O)C[C@@]21C (stereo partly shown) [Example 8b] | 1.50 |
| CCOC(=O)OC(C)OC(=O)[C@@]1(OC(=O)CC)[C@H](C)C[C@H]2[C@@H]3C[C@H](F)C4=CC(=O)C=C[C@]4(C)[C@@]3(F)[C@@H](O)C[C@@]21C (single isomer, unassigned) [Example 26b] | 0.45 |
| CCC(=O)O[C@]1(C(=O)OC(C)OC(=O)OCC2CC2)[C@@H](C)C[C@H]2[C@@H]3CCC4=CC(=O)C=C[C@]4(C)[C@@]3(Cl)[C@@H](O)C[C@@]21C (stereo partly shown) [Example 32b] | 0.86 |
| CCC(=O)O[C@]1(C(=O)OC(C)OC(=O)OC2CCCC2)[C@@H](C)C[C@H]2[C@@H]3CCC4=CC(=O)C=C[C@]4(C)[C@@]3(F)[C@@H](O)C[C@@]21C (stereo partly shown) [Example 14b] | 1.2 |
| CCC(=O)O[C@]1(C(=O)OC(C)OC(=O)OC2CCC2)[C@@H](C)C[C@H]2[C@@H]3CCC4=CC(=O)C=C[C@]4(C)[C@@]3(F)[C@@H](O)C[C@@]21C (stereo partly shown) [Example 13b] | 1.3 |
| CCC(=O)O[C@]1(C(=O)OC(C)OC(=O)OC2CCCCC2)[C@@H](C)C[C@H]2[C@@H]3CCC4=CC(=O)C=C[C@]4(C)[C@@]3(F)[C@@H](O)C[C@@]21C (stereo partly shown) [Example 15b] | 0.54 |
| CCC(=O)O[C@]1(C(=O)OC(C)OC(C)=O)[C@@H](C)C[C@H]2[C@@H]3CCC4=CC(=O)C=C[C@]4(C)[C@@]3(F)[C@@H](O)C[C@@]21C (single isomer, unassigned) [4 (epimer B), 1'-acetyloxyethyl 9α-fluoro-11β-hydroxy-16β-methyl-3-oxo-17α-propionyloxyandrosta-1,4-diene-17β-carboxylate] | 0.69 |
| CCCOC(=O)OC(C)OC(=O)[C@@]1(OC(=O)CC)[C@@H](C)C[C@H]2[C@@H]3CCC4=CC(=O)C=C[C@]4(C)[C@@]3(F)[C@@H](O)C[C@@]21C (stereo partly shown) [Example 7b] | 0.95 |
| C=C(C)COC(=O)OC(C)OC(=O)[C@@]1(OC(=O)CC)[C@@H](C)C[C@H]2[C@@H]3CCC4=CC(=O)C=C[C@]4(C)[C@@]3(F)[C@@H](O)C[C@@]21C (stereo partly shown) [Example 16b] | 0.51 |
| CCC(=O)O[C@]1(C(=O)OC(C)OC(=O)OCc2ccc([N+](=O)[O-])cc2)[C@@H](C)C[C@H]2[C@@H]3CCC4=CC(=O)C=C[C@]4(C)[C@@]3(F)[C@@H](O)C[C@@]21C (single isomer, unassigned) [Example 19b] | 0.53 |
| CCOC(=O)OC(C)OC(=O)[C@@]1(OC(=O)CC)[C@@H](C)C[C@H]2[C@@H]3CCC4=CC(=O)C=C[C@]4(C)[C@@]3(Cl)[C@@H](O)C[C@@]21C (stereo partly shown) [Example 28b] | 1.0 |
| CCCCC(=O)O[C@]1(C(=O)OC(C)OC(=O)N(CC)CC)[C@@H](C)C[C@H]2[C@@H]3CCC4=CC(=O)C=C[C@]4(C)[C@@]3(F)[C@@H](O)C[C@@]21C (single isomer, unassigned) [3 (epimer B), 1'-diethylcarbamoyloxyethyl 9αfluoro-11β-hydroxy-16β-methyl-3-oxo-17α-valeroyloxyandrosta-1,4-diene-17β-carboxylate] | 0.47 |
| CCC(=O)O[C@]1(C(=O)OC(C)OC(=O)NC(C)C)[C@@H](C)C[C@H]2[C@@H]3CCC4=CC(=O)C=C[C@]4(C)[C@@]3(F)[C@@H](O)C[C@@]21C (single isomer, unassigned) [2 (epimer B), 1'-isopropylcarbamoyloxyethyl 9α-fluoro-11β-hydroxy-16β-methyl-3-oxo-17α-propionyloxyandrosta-1,4-diene-17β-carboxylate] | 0.14 |
| CCC(=O)O[C@]1(C(=O)OC(C)OC(=O)OC)[C@@H](C)C[C@H]2[C@@H]3CCC4=CC(=O)C=C[C@]4(C)[C@@]3(F)[C@@H](O)C[C@@]21C (stereo partly shown) [Example 6b] | 0.42 |
| C=CCOC(=O)OC(C)OC(=O)[C@@]1(OC(=O)CC)[C@@H](C)C[C@H]2[C@@H]3CCC4=CC(=O)C=C[C@]4(C)[C@@]3(F)[C@@H](O)C[C@@]21C (stereo partly shown) [Example 9b] | 0.39 |
